The values below come from ChEMBL document CHEMBL1141635, “Novel GSK-3beta inhibitors from sequential virtual screening” (Bioorg Med Chem, 2008).

The test deals with Glycogen synthase kinase-3 beta (Homo sapiens) (UniProt P49841). Kind of test: Inhibition of human GSK3-beta assessed as remaining enzyme activity at 10 uM.
Sequence of Glycogen synthase kinase-3 beta (Homo sapiens) (P49841 whole entry, looked up): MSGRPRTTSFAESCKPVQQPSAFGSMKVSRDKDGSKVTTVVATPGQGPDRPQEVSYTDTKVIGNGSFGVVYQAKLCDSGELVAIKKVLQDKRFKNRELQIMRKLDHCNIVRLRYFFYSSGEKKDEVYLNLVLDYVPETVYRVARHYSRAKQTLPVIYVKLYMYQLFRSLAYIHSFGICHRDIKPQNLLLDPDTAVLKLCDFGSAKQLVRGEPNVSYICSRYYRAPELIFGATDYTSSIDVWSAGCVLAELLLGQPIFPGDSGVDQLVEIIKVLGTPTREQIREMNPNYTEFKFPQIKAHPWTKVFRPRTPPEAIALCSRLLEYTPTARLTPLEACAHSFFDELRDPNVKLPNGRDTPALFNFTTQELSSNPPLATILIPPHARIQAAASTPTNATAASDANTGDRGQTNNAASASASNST
For the compound `Cc1ccc(/N=C2/NC(=O)S/C2=C\c2ccccc2Cl)cc1`, the Activity was 18%.

Turning to `O=C1NC(=O)/C(=C/c2ccc(-c3cc([N+](=O)[O-])ccc3Cl)o2)S1`, the Activity was found to be 8%.

Consider `CCOc1cc(C=C2C(=O)NC(=S)NC2=O)cc(I)c1OC`, for which the Activity came to 58%.

In the case of `O=C1NC(=S)S/C1=C\c1ccccc1OS(=O)(=O)c1ccccc1[N+](=O)[O-]`, the Activity came to 14%.

For `Cc1ccc(S(=O)(=O)n2cc(/C=C3\SC(=S)NC3=O)c3ccccc32)cc1`, the Activity stood at 67%.

For the compound `O=C1CC(C(F)(F)F)=NC(Sc2c(-c3ccccc3)c3cc([N+](=O)[O-])ccc3[nH]c2=O)=N1`, the Activity came out at 41%.

For `Cc1cc(/C=C2\SC(=S)NC2=O)c(C)n1-c1cccc([N+](=O)[O-])c1`, the Activity is 41%.

As to `COc1cc(/C=C2\SC(=S)NC2=O)cc(Br)c1OCc1ccccc1C`, the Activity is 6%.

Turning to `COc1ccc(-c2ccc(/C=C3\SC(=S)NC3=O)o2)c([N+](=O)[O-])c1`, the Activity came out at 5%.

For `CCCNc1nc2ccccn2c(=O)c1/C=C1\SC(=S)NC1=O`, the Activity came to 95%.

On to `COc1ccc2c(c1)/C(=C1/SC(=S)NC1=O)C(=O)N2`, for which the Activity amounted to 84%.

Consider `CC1=NCCNC2=C1[C@H](c1ccc(F)cc1)N(c1ccccn1)C2=O`, for which the Activity stood at 99%.

Consider `O=C1NC(=S)S/C1=C\c1ccc(O)c([N+](=O)[O-])c1`, for which the Activity is 7%.
